In patent publication US20100298141A1, “SUBSTITUTED PYRIDINE N-OXIDE HERBICIDES” (E. I. DU PONT DE NEMOURS AND COMPANY, priority 2007, published 2010):

Tests used:
rice = assay: Test B flooded paddy test; type: in vivo, Oryza sativa; conditions: Flood, 250 g ai/ha, 13 to 15 days; scale 0 to 100, 0 no effect, 100 complete control
Description: At time of treatment, test pots were flooded to 3 cm above the soil surface, treated by application of test compounds directly to the paddy water, and then maintained at that water depth for the duration of the test. Treated plants and controls were maintained in a greenhouse for 13 to 15 days, after which time all species were compared to controls and visually evaluated. […] A dash (-) response means no test result.

windgrass [1] = assay: Test D preemergence test; type: in vivo, Apera spica-venti; conditions: scale 0 to 100
Description: Seeds of plant species selected from annual bluegrass (Poa annua), blackgrass (Alopecurus myosuroides), downy bromegrass (Bromus tectorum), field violet (Viola arvensis), green foxtail (Setaria viridis), Italian ryegrass (Lolium multiflorum), littleseed canarygrass (Phalaris minor), spring wheat (Triticum aestivum), wild oat (Avena fatua), […]), winter barley (Hordeum vulgare), and winter wheat (Triticum aestivum) were planted and treated preemergence with test chemicals formulated in a non-phytotoxic solvent mixture which included a surfactant. […] A dash (-) response means no test result.

field sandbur = assay: Test G preemergence test; type: in vivo, Cenchrus incertus; conditions: scale 0 to 100
giant foxtail = assay: Test G preemergence test; type: in vivo, Setaria faberii; conditions: scale 0 to 100
yellow nutsedge = assay: Test G preemergence test; type: in vivo, Cyperus esculentus; conditions: scale 0 to 100
common sowthistle = assay: Test F preemergence test; type: in vivo, Sonchus oleraceous; conditions: scale 0 to 100; for Sowthistle plant response rating: 62 g ai/ha
How it was run: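 Compound in a non-phytotoxic solvent blend with surfactant is applied preemergence to planted seeds or postemergence to sugarcane plants. Plants and controls stay in the greenhouse 14 to 21 days before visual comparison.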

chickweed = assay: Test C postemergence test; type: in vivo, Stellaria media; conditions: for Plant response rating (0 to 100), Chickweed: 31 g ai/ha; for Plant response rating, Chickweed: scale 0 to 100, 0 no effect, 100 complete control
How it was run: (§1)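 Postemergence sprays of formulated test chemicals on plants 2 to 18 cm tall (1- to 4-leaf stage). Greenhouse hold for 13 to 15 days, then visual rating of each species against untreated controls; dash means no test result.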

windgrass [2] = assay: Test C pre-/postemergence test; type: in vivo, Apera spica-venti; conditions: Postemergence; for Plant response rating, Windgrass: scale 0 to 100, 0 no effect, 100 complete control
Russian thistle = assay: Test F preemergence test; type: in vivo, Salsola kali; conditions: scale 0 to 100
Description: Seeds of plant species selected from bermudagrass (Cynodon dactylon), Surinam grass (Brachiaria decumbens), large crabgrass (Digitaria sanguinalis), green foxtail (Setaria viridis), goosegrass (Eleusine indica), johnsongrass (Sorghum halepense), kochia (Kochia scoparia), pitted morningglory (Ipomoea lacunosa), purple nutsedge (Cyperus rotundus), common ragweed (Ambrosia elation), mustard (Brassica nigra), guineagrass (Panicum maximum), […] (Paspalum dilatatum), barnyardgrass (Echinochloa crus-galli), southern sandbur (Cenchrus echinatus), common sowthistle (Sonchus oleraceous), prickly […] spinosa), Italian ryegrass (Lolium multiflorum), common purslane (Portulaca oleracea), broadleaf signalgrass (Brachiaria platyphylla), common groundsel (Senecio vulgaris), common chickweed (Stellaria media), Virginia dayflower (Commelina virginica), annual bluegrass (Poa annua), naked crabgrass (Digitaria nuda), […] cochinchinensis), quackgrass (Elytrigia repens), Canada horseweed (Conyza canadensis), field bindweed (Convolvulus arvensis), […] (Bidens bipinnata), common mallow (Malva sylvestris), Russian thistle (Salsola kali), and sugarcane (Saccharum officinarum) were planted and treated preemergence with test chemicals formulated in a non-phytotoxic solvent mixture which included a surfactant. At a different time, sugarcane was treated with postemergence applications of some of the test chemicals formulated in the same manner. Plants were approximately 3- to 4-leaf stage for the postemergence treatments. Treated plants and controls were maintained in a greenhouse for 14 to 21 days, after which time all species were compared to controls and visually evaluated. […] A dash (-) response means no test result.

winter barley = assay: Test C postemergence test; type: in vivo, Hordeum vulgare; conditions: for Plant response rating (0 to 100), Barley: 31 g ai/ha; for Plant response rating, Barley: scale 0 to 100, 0 no effect, 100 complete control
How it was run: as §1

canarygrass = assay: Test C postemergence test; type: in vivo, Phalaris minor; conditions: for Plant response rating (0 to 100), Canarygrass: 31 g ai/ha; for Plant response rating, Canarygrass: scale 0 to 100, 0 no effect, 100 complete control
How it was run: as §1

Compound: Cn1nc(C(F)(F)F)c(CS(=O)(=O)c2ccc(Cl)c[n+]2[O-])c1OC(F)F [Compound 7]
- Plant response rating, Rice, Transplanted (rice): 70
- Plant response rating, Windgrass (windgrass [1]; 31 g ai/ha): 65
- Plant response rating, Windgrass (windgrass [1]; 62 g ai/ha): 100
- Plant response rating, Windgrass (windgrass [1]; 125 g ai/ha): 100
- Plant response rating, Windgrass (windgrass [1]; 250 g ai/ha): 100
- Plant response rating, Sandbur (field sandbur; 31 g ai/ha): 0
- Plant response rating, Sandbur (field sandbur; 62 g ai/ha): 0
- Plant response rating, Sandbur (field sandbur; 125 g ai/ha): 0
- Plant response rating, Sandbur (field sandbur; 250 g ai/ha): 75
- Plant response rating, Foxtail, Giant (giant foxtail; 31 g ai/ha): 0
- Plant response rating, Foxtail, Giant (giant foxtail; 62 g ai/ha): 20
- Plant response rating, Foxtail, Giant (giant foxtail; 125 g ai/ha): 25
- Plant response rating, Foxtail, Giant (giant foxtail; 250 g ai/ha): 55
- Plant response rating, Nutsedge, Yellow (yellow nutsedge; 31 g ai/ha): 0
- Plant response rating, Nutsedge, Yellow (yellow nutsedge; 62 g ai/ha): 0
- Plant response rating, Nutsedge, Yellow (yellow nutsedge; 125 g ai/ha): 0
- Plant response rating, Nutsedge, Yellow (yellow nutsedge; 250 g ai/ha): 0

Compound: Cc1cc[n+]([O-])c(S(=O)(=O)Cc2c(C(F)(F)F)nn(C)c2OC(F)F)c1 [Compound 2]
- Plant response rating, Rice, Transplanted (rice): 80
- Plant response rating, Sowthistle (common sowthistle; 8 g ai/ha, preemergence): 0
- Plant response rating, Sowthistle (common sowthistle; 16 g ai/ha, preemergence): 0
- Sowthistle plant response rating (common sowthistle; Preemergence): 100
- Plant response rating, Sowthistle (common sowthistle; Preemergence, 31 g ai/ha): 60
- Plant response rating, Windgrass (windgrass [1]; 31 g ai/ha): 100
- Plant response rating, Windgrass (windgrass [1]; 62 g ai/ha): 100
- Plant response rating, Windgrass (windgrass [1]; 125 g ai/ha): 100
- Plant response rating, Windgrass (windgrass [1]; 250 g ai/ha): 100
- Plant response rating, Sandbur (field sandbur; 31 g ai/ha): 0
- Plant response rating, Sandbur (field sandbur; 62 g ai/ha): 0
- Plant response rating, Sandbur (field sandbur; 125 g ai/ha): 85
- Plant response rating, Sandbur (field sandbur; 250 g ai/ha): 100
- Plant response rating (0 to 100), Chickweed (chickweed): 0
- Plant response rating, Chickweed (chickweed; 62 g ai/ha): 0
- Plant response rating, Chickweed (chickweed; 125 g ai/ha): 5
- Plant response rating, Chickweed (chickweed; 250 g ai/ha): 80
- Plant response rating (0 to 100), Windgrass (windgrass [2]; 31 g ai/ha): 0
- Plant response rating (0 to 100), Windgrass (windgrass [2]; 62 g ai/ha): 10
- Plant response rating, Windgrass (windgrass [2]; 125 g ai/ha): 50
- Plant response rating, Windgrass (windgrass [2]; 250 g ai/ha): 70
- Plant response rating, Russian Thistle (Russian thistle; 8 g ai/ha, preemergence): 0
- Plant response rating, Russian Thistle (Russian thistle; Preemergence, 16 g ai/ha): 0
- Plant response rating, Russian Thistle (Russian thistle; Preemergence, 31 g ai/ha): 0
- Plant response rating, Foxtail, Giant (giant foxtail; 31 g ai/ha): 0
- Plant response rating, Foxtail, Giant (giant foxtail; 62 g ai/ha): 35
- Plant response rating, Foxtail, Giant (giant foxtail; 125 g ai/ha): 100
- Plant response rating, Foxtail, Giant (giant foxtail; 250 g ai/ha): 100
- Plant response rating, Nutsedge, Yellow (yellow nutsedge; 31 g ai/ha): 0
- Plant response rating, Nutsedge, Yellow (yellow nutsedge; 62 g ai/ha): 0
- Plant response rating, Nutsedge, Yellow (yellow nutsedge; 125 g ai/ha): 35
- Plant response rating, Nutsedge, Yellow (yellow nutsedge; 250 g ai/ha): 75
- Plant response rating (0 to 100), Barley (winter barley): 0
- Plant response rating, Barley (winter barley; 62 g ai/ha): 0
- Plant response rating, Barley (winter barley; 125 g ai/ha): 0
- Plant response rating, Barley (winter barley; 250 g ai/ha): 0
- Plant response rating (0 to 100), Canarygrass (canarygrass): 0
- Plant response rating, Canarygrass (canarygrass; 62 g ai/ha): 0
- Plant response rating, Canarygrass (canarygrass; 125 g ai/ha): 0
- Plant response rating, Canarygrass (canarygrass; 250 g ai/ha): 0

Compound: Cn1nc(C(F)(F)F)c(C[S+]([O-])c2cccc[n+]2[O-])c1OC(F)F (centres unmarked) [Compound 3]
- Plant response rating, Rice, Transplanted (rice): 60
- Plant response rating, Sowthistle (common sowthistle; 8 g ai/ha, preemergence): 0
- Plant response rating, Sowthistle (common sowthistle; 16 g ai/ha, preemergence): 0
- Sowthistle plant response rating (common sowthistle; Preemergence): 100
- Plant response rating, Sowthistle (common sowthistle; Preemergence, 31 g ai/ha): 65
- Plant response rating, Windgrass (windgrass [1]; 31 g ai/ha): 0
- Plant response rating, Windgrass (windgrass [1]; 62 g ai/ha): 75
- Plant response rating, Windgrass (windgrass [1]; 125 g ai/ha): 100
- Plant response rating, Windgrass (windgrass [1]; 250 g ai/ha): 100
- Plant response rating, Sandbur (field sandbur; 31 g ai/ha): 0
- Plant response rating, Sandbur (field sandbur; 62 g ai/ha): 35
- Plant response rating, Sandbur (field sandbur; 125 g ai/ha): 95
- Plant response rating, Sandbur (field sandbur; 250 g ai/ha): 95
- Plant response rating (0 to 100), Chickweed (chickweed): 10
- Plant response rating, Chickweed (chickweed; 62 g ai/ha): 70
- Plant response rating, Chickweed (chickweed; 125 g ai/ha): 85
- Plant response rating, Chickweed (chickweed; 250 g ai/ha): 95
- Plant response rating (0 to 100), Windgrass (windgrass [2]; 31 g ai/ha): 0
- Plant response rating (0 to 100), Windgrass (windgrass [2]; 62 g ai/ha): 0
- Plant response rating, Windgrass (windgrass [2]; 125 g ai/ha): 20
- Plant response rating, Windgrass (windgrass [2]; 250 g ai/ha): 70
- Plant response rating, Russian Thistle (Russian thistle; 8 g ai/ha, preemergence): 0
- Russian Thistle plant response rating (Russian thistle; 62 g ai/ha, Preemergence): 100
- Plant response rating, Russian Thistle (Russian thistle; Preemergence, 16 g ai/ha): 0
- Plant response rating, Russian Thistle (Russian thistle; Preemergence, 31 g ai/ha): 35
- Plant response rating, Foxtail, Giant (giant foxtail; 31 g ai/ha): 0
- Plant response rating, Foxtail, Giant (giant foxtail; 62 g ai/ha): 75
- Plant response rating, Foxtail, Giant (giant foxtail; 125 g ai/ha): 100
- Plant response rating, Foxtail, Giant (giant foxtail; 250 g ai/ha): 100
- Plant response rating, Nutsedge, Yellow (yellow nutsedge; 31 g ai/ha): 0
- Plant response rating, Nutsedge, Yellow (yellow nutsedge; 62 g ai/ha): 15
- Plant response rating, Nutsedge, Yellow (yellow nutsedge; 125 g ai/ha): 65
- Plant response rating, Nutsedge, Yellow (yellow nutsedge; 250 g ai/ha): 65
- Plant response rating (0 to 100), Barley (winter barley): 0
- Plant response rating, Barley (winter barley; 62 g ai/ha): 0
- Plant response rating, Barley (winter barley; 125 g ai/ha): 0
- Plant response rating, Barley (winter barley; 250 g ai/ha): 0
- Plant response rating (0 to 100), Canarygrass (canarygrass): 0
- Plant response rating, Canarygrass (canarygrass; 62 g ai/ha): 0
- Plant response rating, Canarygrass (canarygrass; 125 g ai/ha): 0
- Plant response rating, Canarygrass (canarygrass; 250 g ai/ha): 0
